Consider 76 compounds from the OPERA property sets (Mansouri et al. 2018).

SMILES strings stand for the structures.

Details in one data set: not given
One may read the boiling point as the temperature of boiling at a given pressure. The compound `CN1CCOCC1` displayed a boiling point of 116 °C. The melting point is the temperature, or range, at which the solid turns liquid. Compound `CC(C)[C@@H](C)/C=C/[C@@H](C)[C@H]1CC[C@H]2C3=CC=C4C[C@@H](O)CC[C@]4(C)C3=CC[C@]12C` gave a melting point of 146 °C. Regarding `O=P(OC(Cl)CCCl)(OC(Cl)CCCl)OC(Cl)CCCl` (configuration not stated), the melting point was 26.7 °C. On to `CCOC(=O)Cc1c[nH]c2ccccc12`, for which the melting point is 44.5 °C.

The compound `O=Cc1cccc(C=O)c1` gave a boiling point of 246 °C and a melting point of 89.5 °C.

For `COO`, the log10 Henry constant (atm·m³/mol) is -5.34. As to `FC(F)(F)C(F)(F)C(F)(F)C(F)(F)C(F)(F)C(F)(F)C(F)(F)C(F)(F)C(F)(F)C(F)(F)Br`, the boiling point is 198 °C. Take `O=c1oc(=O)c2cc3c(=O)oc(=O)c3cc12`: the ready biodegradability entry is “readily biodegradable”. In turn, `c1ccc(N=NNc2ccccc2)cc1` displayed a log10 vapour pressure (mmHg) of -4.72 and a melting point of 98 °C. Take `O=C(O)c1nc(Cl)ccc1Cl`: the log10 Koc (L/kg) worked out at 1.56, the log10 vapour pressure (mmHg) was -4.92 and the melting point turned out to be 151 °C. `CCOC(F)(F)C(F)F` yielded a boiling point of 57.5 °C and a log10 vapour pressure (mmHg) of 2.34. The compound `c1ccc(CSCc2ccccc2)cc1` yielded a melting point of 49.5 °C. Compound `CCCOC(C)C` registered a boiling point of 83 °C. Compound `CCCCC(O)C(=O)O` (configuration not stated) showed a boiling point of 305 °C, a log10 vapour pressure (mmHg) of -5.5 and a melting point of 61 °C. The compound `c1cc2c3c(c4ccc5ccccc5c4cc3c1)CC2` showed a melting point of 174 °C. Compound `Clc1cnccn1` returned a boiling point of 154 °C.

`FC1(F)C(Cl)=C(Cl)C(F)(F)C1(F)F` displayed a boiling point of 90.7 °C and a melting point of -106 °C. For the compound `COc1cc(C)oc(=O)c1`, the melting point came out at 86 °C. In turn, `C1COCCO1` showed a boiling point of 102 °C, a log10 Henry constant (atm·m³/mol) of -5.32, a log10 Koa of 3.18 and a log10 Koc (L/kg) of 1.23. Further, the log10 vapour pressure (mmHg) was found to be 1.58, the melting point was determined as 11.8 °C and the ready biodegradability result is reported as “not readily biodegradable”. On to `COC(=O)COc1ccc(Cl)cc1Cl`, for which the log10 vapour pressure (mmHg) was -2.64 and the melting point is 119 °C. Turning to `COc1ccc(C=CC(=O)c2ccccc2)cc1`, the melting point came out at 79 °C. As for `CCCCCCCCCCCCCOC(=O)c1ccccc1C(=O)OCCCCCCCCCCCCC`, the ready biodegradability entry was “not readily biodegradable”. For `COC(=O)CC(=O)OC`, the boiling point is 181 °C, the log10 vapour pressure (mmHg) is -0.0458 and the melting point was -61.9 °C.

For `CCSC(=O)COc1ccc(Cl)cc1C`, the log10 vapour pressure (mmHg) is -3.8 and the melting point came to 41.5 °C. In the case of `NC(Cc1ccccc1)C(=O)O` (configuration not stated), the ready biodegradability entry is “readily biodegradable”. `COc1cc(C#N)ccc1O` yielded a melting point of 86 °C. In the case of `Cc1ccc(C)c(N)c1`, the boiling point is 214 °C, the log10 vapour pressure (mmHg) was -0.824, the melting point was determined as 15.5 °C and the ready biodegradability result was “not readily biodegradable”. As to `ClC(Cl)C(Cl)C(Cl)Cl`, the boiling point was determined as 199 °C, the log10 vapour pressure (mmHg) was -0.0278, the melting point was -10 °C and the ready biodegradability entry is “not readily biodegradable”. Consider `NC(=O)Nc1ccc2ccccc2c1`, for which the melting point came to 219 °C. As for `IC1CCCC1`, the boiling point worked out at 166 °C. On to `Clc1cccc2c1Oc1c(Cl)c(Cl)c(Cl)c(Cl)c1O2`, for which the log10 vapour pressure (mmHg) is -9.25 and the melting point was 220 °C. `C1=CCC(c2ccncc2)CC1` (configuration not stated) gave a boiling point of 226 °C and a melting point of 22.1 °C. The matching figures for `Cc1cc(N)cc(C)n1`: 246 °C and 192 °C. `CCC(O)CCC(F)(F)F` (configuration not stated) yielded a boiling point of 141 °C.

As to `CCCCCCc1ccccc1`, the boiling point is 226 °C, the log10 vapour pressure (mmHg) was -0.919, the melting point is -61 °C and the ready biodegradability entry was “readily biodegradable”. As to `CC(C)(S)C(=O)O`, the melting point came out at 47 °C. On to `CC1(C)CC(=O)CC(C)(C)N1`, for which the boiling point was found to be 205 °C, the melting point is 36 °C and the ready biodegradability entry is “not readily biodegradable”. For `CCCCCC(C=O)=Cc1ccccc1`, the melting point is 80 °C and the ready biodegradability entry was “readily biodegradable”. In the case of `CCC=CCC(=O)O`, the boiling point worked out at 208 °C and the melting point was 12 °C. For `c1ccc(C2CCNCC2)cc1`, the boiling point came out at 257 °C and the melting point was determined as 60.5 °C.

`O=C(O)CCc1ccc(O)cc1` gave a melting point of 131 °C. As to `C(=N\C(/N=C/c1ccco1)c1ccco1)/c1ccco1`, the melting point amounted to 117 °C.

Take `CCOC(CO)OCC`: the boiling point stood at 167 °C. With `CCC(C#N)c1ccccc1` (configuration not stated), the boiling point came to 241 °C. In turn, `CCCC(=O)OCCC(C)C` gave a boiling point of 179 °C, a log10 vapour pressure (mmHg) of -0.0223 and a melting point of -73.2 °C.

Turning to `Cc1ccccc1N=Nc1c(N)ccc2ccccc12`, the melting point came out at 126 °C.

`CC(C)CCOC(=O)C(C)O` (configuration not stated) displayed a boiling point of 202 °C. With `O=c1cc(O)cc[nH]1`, the melting point came to 278 °C. On to `CSCSC`, for which the boiling point turned out to be 148 °C. With `CCc1ccccc1-c1ccccc1CC`, the ready biodegradability result is reported as “not readily biodegradable”. In turn, `Brc1ccc2oc3ccccc3c2c1` yielded a melting point of 110 °C.

In the case of `C[C@@H]1Cc2c(Cl)cc(C(=O)N[C@@H](Cc3ccccc3)C(=O)O)c(O)c2C(=O)O1`, the melting point was determined as 169 °C. The same measure, in the same setting: under `N=C(N)c1ccc(Oc2ccc(C(=N)N)cc2)cc1` stands 216 °C. `NS(=O)(=O)c1ccc(CCCCCO)cc1`: the melting point was 86 °C. Regarding `Cc1ccc(S(=O)(=O)O)cc1`, the melting point stood at 104 °C and the ready biodegradability result is “readily biodegradable”. For `O[C@H]1C=CCCC1`, the boiling point was 164 °C. For `Cc1ccccc1NCCO`, the boiling point was found to be 286 °C.

`CCC(O)CO[N+](=O)[O-]` (configuration not stated) yielded a log10 Henry constant (atm·m³/mol) of -6.76. Compound `CCCC[C@@H](O)CCC` displayed a boiling point of 175 °C and a log10 vapour pressure (mmHg) of -0.507. `COc1cc([C@@H]2c3cc4c(cc3C(O[C@@H]3O[C@@H]5CO[C@@H](C)O[C@H]5[C@H](O)[C@H]3O)C3COC(=O)[C@@H]32)OCO4)cc(OC)c1O` (some centres not stated) registered a melting point of 244 °C. As to `FC(Br)C(F)(F)Br` (configuration not stated), the boiling point is 76 °C.

On to `C#CCCC#C`, for which the boiling point was 86 °C and the melting point was -6 °C. Turning to `O=C1CCCCCCCCCCC(=O)OCCO1`, the melting point worked out at 18 °C. For `CC(=O)CC(c1ccc([N+](=O)[O-])cc1)c1c(O)c2ccccc2oc1=O` (configuration not stated), the melting point came out at 197 °C. With `C#C[C@]1(O)CC[C@H]2[C@@H]3CCC4=CC(=O)CC[C@@H]4[C@H]3CC[C@@]21C`, the melting point was determined as 204 °C. With `CC(C)=CCO`, the boiling point was found to be 140 °C. Turning to `CC(=O)CC(=O)CC(C)=O`, the melting point is 49 °C. The compound `C=C(C)C=C(C)C` registered a boiling point of 93.2 °C and a melting point of -114 °C.

`CCC=CBr` returned a boiling point of 99 °C and a log10 vapour pressure (mmHg) of 1.89. In turn, `C#CC(=O)OC` had a boiling point of 104 °C.

As to `SCCCCS`, the boiling point was 196 °C and the melting point is -53.9 °C.

The compound `CC1=CC=C(C(C)C)CC1` had a boiling point of 175 °C. In turn, `C=CCc1ccccc1OCC(O)CNC(C)C` (configuration not stated) came in with a melting point of 108 °C.

The compound `O=C(O)c1cc(F)cc(F)c1` had a melting point of 122 °C.

Compound `Cc1ccc2c(c1)CC=C2` had a boiling point of 207 °C.

Staying with this data set, now noted: fish.
`Cc1cc2cc3cc(C)c(C)cc3cc2cc1C` had a log10 biotransformation half-life (days) of 0.59. The compound `C1COCCO1` showed a log10 BCF of -0.3. Take `Cc1ccc(C)c(N)c1`: the log10 BCF amounted to 0.58 and the log10 biotransformation half-life (days) is -0.99.
